Among the test systems are MCF7 breast; PC-3 prostate; HCT-15 colon; SNB-19 CNS; M14 melanoma; KM12 colon; SF-539 CNS; MOLT-4 leukemia; NCI-H460 lung; UACC-257 melanoma.
What all share (experiment): NCI-60 cell line screen, 48 h

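Tested at 5 concentrations; 48 h exposure; 96-well plates; endpoints linearly interpolated, else capped at highest concentration. At the GI50, growth is halved. TGI: total growth inhibition.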

On to `Clc1ccc(Cl)c(N/N=C\c2c[nH]c3ccccc23)c1`, for which the GI50 is above 100 µM with MCF7 breast; 0.915 µM in the test on PC-3 prostate; 8.81 µM in the test with HCT-15 colon; 13.2 µM in the test with SNB-19 CNS; 12.8 µM in the test on M14 melanoma; 7.45 µM in the test on KM12 colon. Besides, the GI50 is 8.16 µM in the test on SF-539 CNS, 0.293 µM in the test with MOLT-4 leukemia, above 100 µM in the test with NCI-H460 lung and 15.2 µM with UACC-257 melanoma. For the same compound, the TGI in the test with MCF7 breast was above 100 µM; in the test with PC-3 prostate, 9.48 µM; with HCT-15 colon, above 100 µM; in the test with SNB-19 CNS, 29.4 µM; in the test with M14 melanoma it was 25.4 µM; in the test on KM12 colon it was 26.3 µM. The TGI was 21 µM in the test with SF-539 CNS, 11.8 µM in the test on MOLT-4 leukemia, above 100 µM with NCI-H460 lung and 28.9 µM in the test on UACC-257 melanoma.
As for `COc1ccc(C(=O)CC2(O)C(=O)Nc3c(Cl)ccc(Cl)c32)cc1` (centres undefined), the GI50 with MCF7 breast was 0.64 µM; in the test on PC-3 prostate, 2.8 µM; in the test with HCT-15 colon it was 0.885 µM; in the test on SNB-19 CNS it was 4.68 µM; in the test on M14 melanoma, 0.56 µM; in the test on KM12 colon, 0.732 µM. Moreover, the GI50 in the test with SF-539 CNS is 1.64 µM; with MOLT-4 leukemia, 3.18 µM; with NCI-H460 lung it was 0.97 µM; in the test with UACC-257 melanoma, 15.5 µM. Further, the TGI in the test with MCF7 breast is above 100 µM; in the test with PC-3 prostate, above 100 µM; with HCT-15 colon it was 86.4 µM; in the test on SNB-19 CNS it was above 100 µM; in the test on M14 melanoma it was above 22.2 µM; in the test on KM12 colon, above 59.2 µM. For the same compound, the TGI in the test on SF-539 CNS was 6.96 µM; in the test on MOLT-4 leukemia, above 78.5 µM; with NCI-H460 lung, 40.4 µM; in the test with UACC-257 melanoma, above 100 µM.
`COc1c(O)c2ccccc2c2cc(O)ccc12`: the TGI came out at 8.22 µM in the test with MCF7 breast; 60.1 µM in the test with PC-3 prostate; 20.1 µM in the test with HCT-15 colon; 28.2 µM with SNB-19 CNS; 8.57 µM in the test on M14 melanoma; 25.7 µM in the test on KM12 colon. The TGI was 9.88 µM in the test on SF-539 CNS, 77.4 µM with MOLT-4 leukemia, 23.3 µM with NCI-H460 lung and 5.24 µM in the test on UACC-257 melanoma.
Take `CC[C@]1(O)C[C@@H]2CN(Cc3c([nH]c4ccccc34)[C@@](C(=O)OC)(c3cc4c(cc3OC)N(C)[C@H]3[C@@](O)(C(=O)OC)[C@H](OC(C)=O)[C@]5(CC)[C@@H]6C[C@@H]6CN6CC[C@]43[C@@H]65)C2)C1`: the GI50 in the test on MCF7 breast was 0.0181 µM; in the test on PC-3 prostate, 0.0829 µM; in the test on HCT-15 colon, 2.78 µM; in the test on SNB-19 CNS it was 0.106 µM; with M14 melanoma, 0.135 µM; in the test with KM12 colon it was 0.0408 µM. In addition, the GI50 in the test with SF-539 CNS is 0.0363 µM; in the test with MOLT-4 leukemia it was 0.0484 µM; in the test with NCI-H460 lung, 0.109 µM; in the test with UACC-257 melanoma, above 4.38 µM. The TGI in the test with MCF7 breast is above 4.38 µM; with PC-3 prostate, above 4.38 µM; in the test with HCT-15 colon, above 4.38 µM; with SNB-19 CNS, above 4.38 µM; with M14 melanoma, above 2.93 µM; in the test with KM12 colon it was above 4.38 µM. Also, the TGI with MOLT-4 leukemia, in the test on NCI-H460 lung and with UACC-257 melanoma was above 4.38 µM each time.
Take `COc1ccc(CCNc2nc3ccccc3c3[nH]c4ccccc4c23)cc1OC`: the GI50 is 2.2 µM in the test on MCF7 breast; 3.66 µM in the test with PC-3 prostate; 2.86 µM in the test on HCT-15 colon; 3.84 µM in the test with SNB-19 CNS; 1.87 µM in the test on M14 melanoma; 1.53 µM in the test with KM12 colon. Besides, the GI50 with SF-539 CNS is 2.17 µM; in the test with MOLT-4 leukemia, 3.23 µM; in the test with NCI-H460 lung, 2.1 µM; in the test with UACC-257 melanoma, 1.99 µM. Besides, the TGI with MCF7 breast worked out at 5.32 µM; in the test on PC-3 prostate, 14 µM; in the test on HCT-15 colon it was 10.4 µM; with SNB-19 CNS it was 15.4 µM; in the test with M14 melanoma, 3.5 µM; with KM12 colon, 3.58 µM. Also, the TGI was 4.06 µM with SF-539 CNS, 12.3 µM in the test with MOLT-4 leukemia, 5.93 µM in the test on NCI-H460 lung and 3.8 µM in the test on UACC-257 melanoma.
Consider `[O-][n+]1onc2c3nn(-c4ccccc4)nc3ccc21`, for which the TGI in the test on MCF7 breast is above 100 µM; in the test with PC-3 prostate, above 100 µM; in the test on HCT-15 colon, above 100 µM; in the test on SNB-19 CNS it was above 100 µM; in the test on M14 melanoma, above 100 µM; with KM12 colon, 48.5 µM. In addition, the TGI with SF-539 CNS was above 100 µM; in the test with MOLT-4 leukemia, above 100 µM; in the test on NCI-H460 lung it was above 100 µM; in the test with UACC-257 melanoma, above 92.2 µM.
With `C1=C[C@@H]2c3ccc4cnccc4c3NC[C@@H]2C1`, the TGI in the test on MCF7 breast, in the test on PC-3 prostate, in the test on HCT-15 colon, in the test on SNB-19 CNS, with M14 melanoma and in the test with KM12 colon was above 100 µM throughout. Moreover, the TGI in the test on SF-539 CNS, in the test with MOLT-4 leukemia, with NCI-H460 lung and with UACC-257 melanoma was above 100 µM each time.
For the compound `COc1ccc(/C=C2/SC(=Nc3c(C)nn(-c4ccccc4)c3N)NC2=O)cc1`, the GI50 is 3.08 µM in the test with MCF7 breast; 4.35 µM with PC-3 prostate; 3.64 µM in the test on HCT-15 colon; 7.68 µM with SNB-19 CNS; 3.72 µM in the test with M14 melanoma; 3.5 µM in the test on KM12 colon. Further, the GI50 in the test with SF-539 CNS is 2.38 µM; with MOLT-4 leukemia it was 8.4 µM; with NCI-H460 lung, 3.04 µM; in the test with UACC-257 melanoma it was 6.63 µM. Further, the TGI was 31.5 µM in the test with MCF7 breast; 77.7 µM with PC-3 prostate; 30.7 µM in the test with HCT-15 colon; above 100 µM with SNB-19 CNS; 22.6 µM in the test with M14 melanoma; 13.6 µM with KM12 colon. Further, the TGI is 10.8 µM in the test with SF-539 CNS, above 100 µM in the test on MOLT-4 leukemia, 10.7 µM with NCI-H460 lung and 65.6 µM in the test with UACC-257 melanoma.
Turning to `Cc1cc2c(-c3nc4ccccc4[nH]3)c(O)c(O)cc2c(O)c1-c1c(C)cc2c(-c3nc4ccccc4[nH]3)c(O)c(O)cc2c1O`, the GI50 with MCF7 breast was 0.018 µM; with PC-3 prostate it was 0.0187 µM; with HCT-15 colon it was 0.0156 µM; with SNB-19 CNS it was 0.0202 µM; in the test on M14 melanoma it was 0.08 µM; with KM12 colon, 0.017 µM. The GI50 was 0.0344 µM with SF-539 CNS, 0.019 µM in the test with MOLT-4 leukemia, 0.00751 µM with NCI-H460 lung and 0.136 µM with UACC-257 melanoma. Besides, the TGI is 6.84 µM with MCF7 breast; above 34.4 µM with PC-3 prostate; 19.8 µM in the test on HCT-15 colon; 9.62 µM in the test on SNB-19 CNS; above 50 µM in the test with M14 melanoma; 0.775 µM in the test with KM12 colon. For the same compound, the TGI in the test with SF-539 CNS is 0.494 µM; with MOLT-4 leukemia, above 50 µM; in the test with NCI-H460 lung, 0.112 µM; in the test on UACC-257 melanoma it was 16.2 µM.
As to `O=c1c(Cl)nsnc1Cl`, the TGI in the test on MCF7 breast was 31.5 µM; in the test on PC-3 prostate, 39.1 µM; with HCT-15 colon, 51.1 µM; in the test with SNB-19 CNS, 49.1 µM; in the test on M14 melanoma, 12.8 µM; in the test on KM12 colon, above 57.8 µM. Also, the TGI is 28.1 µM in the test on SF-539 CNS, 4.09 µM in the test with MOLT-4 leukemia, above 73.1 µM with NCI-H460 lung and 26.8 µM in the test on UACC-257 melanoma.
`Cn1cc(-c2ccc3cc(-c4ccc(CC(=O)Nc5cc(C(C)(C)C)nn5C)cc4)cnc3c2)cn1`: the GI50 with MCF7 breast was 0.496 µM; in the test on PC-3 prostate, 0.36 µM; with HCT-15 colon it was 0.157 µM; in the test on SNB-19 CNS, 0.473 µM; with M14 melanoma, 0.144 µM; in the test with KM12 colon it was 0.0233 µM. In addition, the GI50 is 0.112 µM with SF-539 CNS, 0.282 µM in the test with MOLT-4 leukemia, 0.165 µM in the test with NCI-H460 lung and 0.425 µM in the test on UACC-257 melanoma. Also, the TGI in the test with MCF7 breast, in the test with PC-3 prostate, in the test on HCT-15 colon, with SNB-19 CNS, with M14 melanoma and with KM12 colon was above 100 µM throughout. The TGI with SF-539 CNS was 12.4 µM; in the test with MOLT-4 leukemia, above 100 µM; in the test with NCI-H460 lung it was above 100 µM; in the test with UACC-257 melanoma, above 100 µM.
For `CCOC(=O)c1cnc2ccc(Cl)cc2c1NCCCN(C)C`, the GI50 was 19.4 µM in the test with MCF7 breast; 27.3 µM in the test on PC-3 prostate; 25.2 µM in the test on HCT-15 colon; 51.1 µM with SNB-19 CNS; 17.8 µM with M14 melanoma; 25.8 µM in the test with KM12 colon. Also, the GI50 with SF-539 CNS is 17.4 µM; in the test on MOLT-4 leukemia, 16.3 µM; with NCI-H460 lung it was 22.2 µM; in the test with UACC-257 melanoma, 17.3 µM. The TGI with MCF7 breast is 75.6 µM; in the test on PC-3 prostate, above 100 µM; in the test with HCT-15 colon it was above 100 µM; in the test on SNB-19 CNS it was above 100 µM; in the test with M14 melanoma, 33 µM; in the test with KM12 colon, above 100 µM. For the same compound, the TGI turned out to be 41.5 µM in the test on SF-539 CNS, 63.5 µM in the test on MOLT-4 leukemia, 82.7 µM in the test on NCI-H460 lung and 34.9 µM with UACC-257 melanoma.
`CCCCC1(N=[N+]=[N-])C(=O)c2cccc3c2N(CCC3)C1=O` (centres undefined): the TGI with MCF7 breast, in the test on PC-3 prostate, in the test on HCT-15 colon, in the test on SNB-19 CNS, in the test with M14 melanoma and in the test with KM12 colon was above 100 µM each time. Besides, the TGI with SF-539 CNS, in the test on MOLT-4 leukemia, in the test with NCI-H460 lung and in the test on UACC-257 melanoma was above 100 µM throughout.

The values are drawn from PubChem BioAssay (NCI).
